Measured values published in US20220287935A1, “CANNABINOID-CONTAINING SKIN CARE COMPOSITIONS” (Cannasmetics Ltd., priority 2021, published 2022).

Columns and labels:
[1] = tested on: TNFα secretion from LPS-stimulated THP-1 cells; assay: TNFα secretion from LPS-stimulated THP-1 cells (HTRF); format: cell-based, Human; conditions: for ratio of TNFα secretion to cells viability: alone; for TNFα secretion (percentage of the control): each alone, highest concentration, FIG. 2A
Procedure: (§1) Human THP-1 monocytes were seeded in a 96-well plate (Eppendorf) at a density of 3×10^5 cells/well (n=4) in 100 μl cell specific media and was differentiated using phorbol-12-myristate 13-acetate (PMA) (Sigma-Aldrich) at a final concentration of 200 nM. PMA supplemented media was removed after 72 hours. Cells were then washed twice with PBS and rested in fresh PMA-free media for further 24 hours in order to obtain phenotypic characteristics of macrophages (Daigneault et al., 2010, PLoS One, 5, e8668).
(§2) After 24 hours, cells were stimulated by Lipopolysaccharides (LPS) at a final concentration of 1μg/ml and were treated with the samples using specific media containing 5% FBS (100 μL of media solution containing the tested materials at the indicated concentration; see, Example 1).
(§3) After 24 hours, the cells supernatants were harvested and diluted up to 5 times in working media to avoid the hook effect. HTRF assays were performed in white 96-well plate (CisBio Bioassays) with a total working volume of 20 μL. All HTRF reagents were purchased from CisBio Bioassays and reconstituted according to the supplier protocols. For each assay 16 μL of diluted supernatants samples were incubated with 4 μL mixed solution containing donor and acceptor antibodies. Antibodies for the detection of TNFα and IL6 were used.
(§4) After 2 hours incubation, HTRF signals were measured using SPARK® multimode microplate reader with an excitation filter at 320 nm and fluorescence wavelength measurement at 620 and 665 nm, an integration delay of 60 μs and an integration time of 400 μs. Results were analyzed with a two-wavelength signal ratio: [intensity (665 nm)/intensity (620 nm)]*104. Calculation and analysis of cytokines release was performed according to the supplier protocols and using the 4PL 1/Y2 formula in GraphPad Prism software.

HaCaT cells [2] = assay: Cellular ROS production from HaCaT cells in the presence of H2O2 (DCFDA assay); format: cell-based; conditions: each component alone, 5 hours, FIG. 9A
Procedure: Cellular ROS production was measured using a DCFDA assay kit (Abcam, ab113851)) according to the manufacturer's protocol. DCFDA (2′,7′-dichlorofluorescein diacetate), a cell-permeable fluorogenic dye, is deacetylated to a non-fluorescent compound by cellular esterases and later oxidized into highly fluorescent DCF (2′,7′-dichlorofluorescein) by ROS, allowing measurement of hydroxyl, peroxyl and other ROS activity within the cell.
HaCaT cells were seeded at a density of 2.5×10^4 for 24 hours on 96-well plates. After 24 hours, the cells were washed twice with 1× buffer assay and then incubated with 25 μM DCFDA in 1× buffer assay in a 37° C. incubator for 45 minutes. After two washes with 1× buffer assay, the cells were exposed to the tested samples and to 0.25 M H202, each added separately to the medium.
Cell fluorescence in the 96-well plates was measured at 488 nm excitation and 525 nm emission using a Tecan spark plate reader (Tecan US, Inc. Morrisville, NC), 5 hours after the addition of the tested samples or sample combinations.
The control used as reference are cells treated only with H2O2. The results are shown as percentage of the control.

[3] = Viability of THP-1 cells, MTT assay; format: cell-based, Human; conditions: human, THP-1 cells (monocytes); for viability at 24 h: CBD and CBG alone, treatments reported with the IL6 data, read-out: viability levels
Procedure: (§5) Cell lines were cultured according to standard mammalian tissue culture protocols and sterile technique. Human monocytes THP-1 cells were cultured in RPMI medium 1640. HaCaT cells were cultured in DMEME medium. All media was supplemented with 10% fetal bovine serum, streptomycin ([…]), penicillin (100 U/ml) and Nystatin (12.5 U/ml). Cells were incubated in 5% CO2 at 37° C. All tissue culture cells were maintained in 75 cm^2 cell culture treated flask (Eppendorf) and all the media and supplements were obtained from Biological Industries. Treatment were performed by plating cells in a 96 micro well delta surface plates (Eppendorf) in a starting confluence of 1×10^4 cells/well.
(§6) The viability of the cells following treatment was determined using a commercially available MTT assay kit (Abcam, ab146345) and performed according to manufacturer's instructions. Briefly, cells were seeded in a 96-well plate at a density of 1×10^4 cells/well (n=4) in 100 μl cell specific media. After overnight incubation, cells were exposed to varying concentrations of isolated components (CBD, CBG and PSO, each alone) and combination samples as described in Example 1, in 100 μl of specific media, by adding a stock solution to the medium in amount that provides the indicated concentration (see, Tables 1, 2A and 2B). Then, plates were incubated in a humidified atmosphere containing 5% CO2 in air at 37° C. for 24 hours. According to the MTT standard protocol, after 24 hours treatment, the media was removed, and all cells were incubated with serum-free media containing 0.5 mg/ml MTT for 4 hours at the incubator. The MTT purple crystals formed by the viable cells were dissolved using isopropanol containing 0.04 mol/L HCl. The quantification was determined by measuring the optical density at 570 nm in a spectrophotometer reader (Spark, Tecan). Results are presented as proportional viability (%) by comparing between treated and untreated groups.
(§7) Cytotoxic potential of an extract was determined according to the following criteria:
(§8) Cytotoxic: Viability is reduced to less than 70% of vehicle control.
(§9) Non-cytotoxic: Viability is >70% of vehicle control

THP-1 cells = assay: Viability of THP-1 cells, MTT assay; format: cell-based, Human; conditions: 24 hours
Procedure: as §5, §6, §7, §8, §9

HaCaT cells [4] = assay: Viability of HaCaT cells, MTT assay; format: cell-based; conditions: alone, FIG. 8A
Procedure: as §5, §6, §7
Cytotoxic: Viability is reduced to less than 70% of vehicle control. […]

[5] = tested on: IL6 secretion from LPS-stimulated THP-1 cells; assay: IL6 secretion from LPS-stimulated THP-1 cells (HTRF); format: cell-based, Human; conditions: alone
Procedure: as §1, §2, §3, §4

[6] = alone, reported with the TNFα data
[7] = each component alone, all tested concentrations, FIG. 1A-B

Compound | ratio of TNFα secretion to cells viability ([1]; 10 μM) | ratio of TNFα secretion to cells viability ([1]; 20 μM) | ratio of TNFα secretion to cells viability ([1]; lowest concentration, FIG. 2B) | TNFα secretion (percentage of the control) [1] | ROS production from HaCaT cells, effect relative to the solvent (ethanol) (HaCaT cells [2]) | viability at 24 h [3] [%] | viability at 24 h, 10 µM ([3]; alone, 10 μM, reported with the TNFα data) [%] | viability at 24 h, 20 µM [3, 6] [%] | THP-1 cells viability (THP-1 cells; 20 μM, FIG. 1A) | THP-1 cells viability (THP-1 cells; [7]) | toxicity to keratinocyte cells (HaCaT cells [4]; high concentration, e.g. 40 μM) | viability of HaCaT cells (toxicity) (HaCaT cells [4]; higher concentration) | ratio of IL6 secretion to cells viability ([5]; lowest tested concentration of 10 μM) | ratio of TNFα secretion to cells viability ([1]; medium concentration, FIG. 2B) | toxicity to keratinocyte cells (HaCaT cells [4]; only at a high concentration) | ratio of IL6 secretion to cells viability ([5]; 40 μM) | ratio between IL-6 secretion and viability ([5]; highest concentration, FIG. 5B)
C=C(C)[C@@H]1CCC(C)=C[C@H]1c1c(O)cc(CCCCC)cc1O [CBD, cannabidiol] | about 0.6 | about 0.6 | lowest ratio | elevation of TNFα secretion | very mild effect | > 140 | 140 | 140 | most pronounced effect | enhanced viability | toxic | toxic | 0.23 | – | – | – | –
CCCCCc1cc(O)c(C/C=C(\C)CCC=C(C)C)c(O)c1 [CBG, cannabigerol] | – | about 0.6 | – | elevation of TNFα secretion | very mild effect | > 140 | – | 140 | – | enhanced viability | – | – | – | lowest ratio | mild toxicity | 0.29 | high reduction of the ratio
